According to ChEMBL document CHEMBL3885881, “DrugMatrix”:

Species on record: Rattus norvegicus
Assay: DrugMatrix - Regimen: Daily Repeat
Format: toxicity, organism-based, Sprague-Dawley
Parameters: regimen Daily Repeat, gender Male, age 6-8 weeks
Settings: in vivo, po, route oral GAVAGE, […]; for ABSOLUTE BASOPHIL / ABSOLUTE EOSINOPHIL / ABSOLUTE LYMPHOCYTE / ABSOLUTE MONOCYTE / ABSOLUTE SEGMENTED NEUTROPHIL / BASOPHIL / EOSINOPHIL / ERYTHROCYTE COUNT / HEMATOCRIT / HEMOGLOBIN / LEUKOCYTE COUNT / LYMPHOCYTE / MEAN CORPUSCULAR HEMOGLOBIN / MEAN CORPUSCULAR HEMOGLOBIN CONCENTRATION / MEAN CORPUSCULAR VOLUME / MONOCYTE / NEUTROPHIL / NUCLEATED RED BLOOD CELLS / PLATELET COUNT: tissue Blood; for ALANINE AMINOTRANSFERASE / ALBUMIN / ALKALINE PHOSPHATASE / ASPARTATE AMINOTRANSFERASE / BLOOD UREA NITROGEN / CARBON DIOXIDE / CHLORIDE / CHOLESTEROL / CREATINE PHOSPHOKINASE / CREATININE / GLUCOSE / LACTATE DEHYDROGENASE / LIPASE / PHOSPHORUS / POTASSIUM / SODIUM / TOTAL BILIRUBIN / TOTAL PROTEIN / URIC ACID: tissue Plasma
[1] = 0 mg/kg, 72 h, dose level Control, time 3 day
[2] = 0 mg/kg, 120 h, dose level Control, time 5 day
[3] = 25 mg/kg, 72 h, dose level Low, time 3 day

For `CC(C)(C)NC(=O)[C@H]1CC[C@H]2[C@@H]3CC[C@H]4NC(=O)C=C[C@]4(C)[C@H]3CC[C@]12C` [FINASTERIDE], the “ABSOLUTE BASOPHIL” value [1] was 0 CELLS/uL, the “ABSOLUTE EOSINOPHIL” value [1] was 52.33 CELLS/uL and the “ABSOLUTE LYMPHOCYTE” value [1] was 9105.33 CELLS/uL. The “ABSOLUTE MONOCYTE” value [1] was 155.67 CELLS/uL, the “ABSOLUTE SEGMENTED NEUTROPHIL” value [1] was 1020 CELLS/uL and the BASOPHIL [1] was 0%. The EOSINOPHIL [1] was 0.33%, the “ERYTHROCYTE COUNT” value [1] was 5.03 x10E6/uL and the HEMATOCRIT [1] was 31.63%. The HEMOGLOBIN [1] was 12.37 G/DL, the “LEUKOCYTE COUNT” value [1] was 10.33 x10E3/uL and the LYMPHOCYTE [1] was 87%. For the same molecule, the “MEAN CORPUSCULAR HEMOGLOBIN” value [1] was 24.57 pg, the “MEAN CORPUSCULAR HEMOGLOBIN CONCENTRATION” value [1] was 39.07 G/DL and the “MEAN CORPUSCULAR VOLUME” value [1] was 62.93 fL. The MONOCYTE [1] was 1.33%, the NEUTROPHIL [1] was 11.33% and the “NUCLEATED RED BLOOD CELLS” value [1] was 0 /100WBC. The “PLATELET COUNT” value [1] was 896 x10E3/uL, the “ALANINE AMINOTRANSFERASE” value [1] was 75.33 u/L and the ALBUMIN [1] was 3.77 G/DL. The “ALKALINE PHOSPHATASE” value [1] was 378.67 u/L, the “ASPARTATE AMINOTRANSFERASE” value [1] was 101.33 u/L and the “BLOOD UREA NITROGEN” value [1] was 11.33 mg/dL. The “CARBON DIOXIDE” value [1] was 25 mmol/L, the CHLORIDE [1] was 99 MEQ/L and the CHOLESTEROL [1] was 66 mg/dL. The “CREATINE PHOSPHOKINASE” value [1] was 277 u/L, the CREATININE [1] was 0.33 mg/dL and the GLUCOSE [1] was 198.33 mg/dL. The “LACTATE DEHYDROGENASE” value [1] was 140.33 u/L, the LIPASE [1] was 11.33 u/L and the PHOSPHORUS [1] was 11.83 mg/dL. For the same molecule, the POTASSIUM [1] was 5.37 MEQ/L, the SODIUM [1] was 141.03 MEQ/L and the “TOTAL BILIRUBIN” value [1] was 0.2 mg/dL. The “TOTAL PROTEIN” value [1] was 5.47 G/DL, the “URIC ACID” value [1] was 0.93 mg/dL and the “ABSOLUTE BASOPHIL” value [2] was 0 CELLS/uL. The “ABSOLUTE EOSINOPHIL” value [2] was 0 CELLS/uL, the “ABSOLUTE LYMPHOCYTE” value [2] was 8734 CELLS/uL and the “ABSOLUTE MONOCYTE” value [2] was 98.67 CELLS/uL. For the same molecule, the “ABSOLUTE SEGMENTED NEUTROPHIL” value [2] was 1034 CELLS/uL, the BASOPHIL [2] was 0% and the EOSINOPHIL [2] was 0%. The “ERYTHROCYTE COUNT” value [2] was 5.19 x10E6/uL, the HEMATOCRIT [2] was 33.2% and the HEMOGLOBIN [2] was 12.93 G/DL. For the same molecule, the “LEUKOCYTE COUNT” value [2] was 9.87 x10E3/uL, the LYMPHOCYTE [2] was 87% and the “MEAN CORPUSCULAR HEMOGLOBIN” value [2] was 25 pg. For the same molecule, the “MEAN CORPUSCULAR HEMOGLOBIN CONCENTRATION” value [2] was 39.03 G/DL, the “MEAN CORPUSCULAR VOLUME” value [2] was 63.93 fL and the MONOCYTE [2] was 1%. For the same molecule, the NEUTROPHIL [2] was 12%, the “NUCLEATED RED BLOOD CELLS” value [2] was 0 /100WBC and the “PLATELET COUNT” value [2] was 1190 x10E3/uL. For the same molecule, the “ALANINE AMINOTRANSFERASE” value [2] was 75.67 u/L, the ALBUMIN [2] was 4 G/DL and the “ALKALINE PHOSPHATASE” value [2] was 384.33 u/L. For the same molecule, the “ASPARTATE AMINOTRANSFERASE” value [2] was 89.67 u/L, the “BLOOD UREA NITROGEN” value [2] was 13 mg/dL and the “CARBON DIOXIDE” value [2] was 32.67 mmol/L. The CHLORIDE [2] was 103 MEQ/L, the CHOLESTEROL [2] was 79.67 mg/dL and the “CREATINE PHOSPHOKINASE” value [2] was 199.33 u/L. For the same molecule, the CREATININE [2] was 0.29 mg/dL, the GLUCOSE [2] was 161.33 mg/dL and the “LACTATE DEHYDROGENASE” value [2] was 92.33 u/L. For the same molecule, the LIPASE [2] was 11.67 u/L, the PHOSPHORUS [2] was 10.8 mg/dL and the POTASSIUM [2] was 5.38 MEQ/L. For the same molecule, the SODIUM [2] was 145.3 MEQ/L, the “TOTAL BILIRUBIN” value [2] was 0.17 mg/dL and the “TOTAL PROTEIN” value [2] was 5.7 G/DL. For the same molecule, the “URIC ACID” value [2] was 0.63 mg/dL, the “ABSOLUTE BASOPHIL” value [3] was 0 CELLS/uL and the “ABSOLUTE EOSINOPHIL” value [3] was 0 CELLS/uL. For the same molecule, the “ABSOLUTE LYMPHOCYTE” value [3] was 6334 CELLS/uL, the “ABSOLUTE MONOCYTE” value [3] was 74.67 CELLS/uL and the “ABSOLUTE SEGMENTED NEUTROPHIL” value [3] was 624.67 CELLS/uL. The BASOPHIL [3] was 0%, the EOSINOPHIL [3] was 0% and the “ERYTHROCYTE COUNT” value [3] was 5.31 x10E6/uL. For the same molecule, the HEMATOCRIT [3] was 33.17%, the HEMOGLOBIN [3] was 12.87 G/DL and the “LEUKOCYTE COUNT” value [3] was 7.03 x10E3/uL. For the same molecule, the LYMPHOCYTE [3] was 89.67%, the “MEAN CORPUSCULAR HEMOGLOBIN” value [3] was 24.23 pg and the “MEAN CORPUSCULAR HEMOGLOBIN CONCENTRATION” value [3] was 38.8 G/DL. For the same molecule, the “MEAN CORPUSCULAR VOLUME” value [3] was 62.43 fL, the MONOCYTE [3] was 1% and the NEUTROPHIL [3] was 9.33%. The “NUCLEATED RED BLOOD CELLS” value [3] was 0 /100WBC, the “PLATELET COUNT” value [3] was 1308 x10E3/uL and the “ALANINE AMINOTRANSFERASE” value [3] was 57.33 u/L. For the same molecule, the ALBUMIN [3] was 3.9 G/DL, the “ALKALINE PHOSPHATASE” value [3] was 360 u/L and the “ASPARTATE AMINOTRANSFERASE” value [3] was 80.67 u/L. For the same molecule, the “BLOOD UREA NITROGEN” value [3] was 11 mg/dL, the “CARBON DIOXIDE” value [3] was 26.33 mmol/L and the CHLORIDE [3] was 101.33 MEQ/L. For the same molecule, the CHOLESTEROL [3] was 77 mg/dL, the “CREATINE PHOSPHOKINASE” value [3] was 434.67 u/L and the CREATININE [3] was 0.12 mg/dL. The GLUCOSE [3] was 184.33 mg/dL, the “LACTATE DEHYDROGENASE” value [3] was 112 u/L and the LIPASE [3] was 10.67 u/L. For the same molecule, the PHOSPHORUS [3] was 12.1 mg/dL, the POTASSIUM [3] was 4.86 MEQ/L and the SODIUM [3] was 144.9 MEQ/L. For the same molecule, the “TOTAL BILIRUBIN” value [3] was 0.2 mg/dL, the “TOTAL PROTEIN” value [3] was 5.83 G/DL and the “URIC ACID” value [3] was 0.87 mg/dL.
